Source: publication PMC6199744, “Development of Chemical Proteomics for the Folateome and Analysis of the Kinetoplastid Folateome” (ACS Infectious Diseases, 2018)
Where two headings read alike, the source gives them in different places.

What was measured:
Format in all cases: binding
[1] = biological target: T1, HeLa cell extract proteins (Homo sapiens, UniProt O00231)
T1 construct: endogenous in cells; host or cells: HeLa cell extract

[2] = biological target: T2, HeLa cell extract proteins (Homo sapiens, UniProt O43819)
T2 construct: endogenous in cells; host or cells: HeLa cell extract
T2 sequence (O43819 42-266): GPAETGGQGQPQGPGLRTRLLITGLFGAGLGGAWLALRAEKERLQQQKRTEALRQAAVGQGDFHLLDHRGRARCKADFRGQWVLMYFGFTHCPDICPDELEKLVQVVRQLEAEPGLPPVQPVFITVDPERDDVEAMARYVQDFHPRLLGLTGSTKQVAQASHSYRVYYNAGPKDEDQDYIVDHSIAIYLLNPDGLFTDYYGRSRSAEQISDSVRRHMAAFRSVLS

[3] = biological target: T3, HeLa cell extract proteins (Homo sapiens, UniProt O75718)
T3 construct: endogenous in cells; host or cells: HeLa cell extract
T3 sequence (O75718 27-401): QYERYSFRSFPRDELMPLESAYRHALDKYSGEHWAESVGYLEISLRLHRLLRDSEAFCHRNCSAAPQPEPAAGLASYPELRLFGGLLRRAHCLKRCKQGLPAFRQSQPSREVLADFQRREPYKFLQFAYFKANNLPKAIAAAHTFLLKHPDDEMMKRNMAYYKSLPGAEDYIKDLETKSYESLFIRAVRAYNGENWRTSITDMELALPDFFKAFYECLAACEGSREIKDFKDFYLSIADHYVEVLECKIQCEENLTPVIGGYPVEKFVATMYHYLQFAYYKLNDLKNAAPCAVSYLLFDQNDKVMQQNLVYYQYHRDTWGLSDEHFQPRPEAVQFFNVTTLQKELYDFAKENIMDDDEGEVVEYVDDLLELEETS

[4] = biological target: T4, HeLa cell extract proteins (Homo sapiens, UniProt P05109)
T4 construct: endogenous in cells; host or cells: HeLa cell extract
T4 sequence (P05109 1-93): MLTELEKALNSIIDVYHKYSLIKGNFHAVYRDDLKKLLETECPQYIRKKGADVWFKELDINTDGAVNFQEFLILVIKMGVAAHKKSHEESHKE

[5] = biological target: T5, HeLa cell extract proteins (Homo sapiens, UniProt P10619)
T5 construct: endogenous in cells; host or cells: HeLa cell extract
T5 sequence (P10619 29-480): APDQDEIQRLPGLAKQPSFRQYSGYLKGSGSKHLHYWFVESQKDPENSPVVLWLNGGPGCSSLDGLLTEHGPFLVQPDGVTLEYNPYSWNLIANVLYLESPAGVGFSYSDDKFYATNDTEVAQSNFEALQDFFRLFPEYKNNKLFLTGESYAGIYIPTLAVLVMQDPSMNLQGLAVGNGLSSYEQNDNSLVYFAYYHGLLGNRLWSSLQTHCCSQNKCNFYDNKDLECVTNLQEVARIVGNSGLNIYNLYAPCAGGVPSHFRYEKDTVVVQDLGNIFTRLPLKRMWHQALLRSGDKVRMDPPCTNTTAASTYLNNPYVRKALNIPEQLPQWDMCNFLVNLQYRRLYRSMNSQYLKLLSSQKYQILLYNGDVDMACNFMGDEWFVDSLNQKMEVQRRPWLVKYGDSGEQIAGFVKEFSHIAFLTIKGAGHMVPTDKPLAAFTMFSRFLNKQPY

[6] = biological target: T6, HeLa cell extract proteins (Homo sapiens, UniProt P24390)
T6 construct: endogenous in cells; host or cells: HeLa cell extract
T6 sequence (P24390 1-212): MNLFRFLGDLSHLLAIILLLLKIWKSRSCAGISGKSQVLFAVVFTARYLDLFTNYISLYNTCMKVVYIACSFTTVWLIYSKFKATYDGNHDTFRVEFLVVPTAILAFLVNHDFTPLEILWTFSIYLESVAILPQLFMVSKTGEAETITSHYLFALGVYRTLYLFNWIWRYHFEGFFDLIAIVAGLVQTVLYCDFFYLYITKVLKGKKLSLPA

[7] = biological target: T7, HeLa cell extract proteins (Homo sapiens, UniProt P69905)
T7 construct: endogenous in cells; host or cells: HeLa cell extract
T7 sequence (P69905 whole entry): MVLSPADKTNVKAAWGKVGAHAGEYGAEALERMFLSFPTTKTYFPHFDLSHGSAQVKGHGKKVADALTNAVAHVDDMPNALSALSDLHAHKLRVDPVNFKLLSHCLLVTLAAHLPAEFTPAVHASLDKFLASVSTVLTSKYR

[8] = biological target: T8, HeLa cell extract proteins (Homo sapiens, UniProt Q13535)
T8 construct: endogenous in cells; host or cells: HeLa cell extract
T8 sequence (Q13535 whole entry): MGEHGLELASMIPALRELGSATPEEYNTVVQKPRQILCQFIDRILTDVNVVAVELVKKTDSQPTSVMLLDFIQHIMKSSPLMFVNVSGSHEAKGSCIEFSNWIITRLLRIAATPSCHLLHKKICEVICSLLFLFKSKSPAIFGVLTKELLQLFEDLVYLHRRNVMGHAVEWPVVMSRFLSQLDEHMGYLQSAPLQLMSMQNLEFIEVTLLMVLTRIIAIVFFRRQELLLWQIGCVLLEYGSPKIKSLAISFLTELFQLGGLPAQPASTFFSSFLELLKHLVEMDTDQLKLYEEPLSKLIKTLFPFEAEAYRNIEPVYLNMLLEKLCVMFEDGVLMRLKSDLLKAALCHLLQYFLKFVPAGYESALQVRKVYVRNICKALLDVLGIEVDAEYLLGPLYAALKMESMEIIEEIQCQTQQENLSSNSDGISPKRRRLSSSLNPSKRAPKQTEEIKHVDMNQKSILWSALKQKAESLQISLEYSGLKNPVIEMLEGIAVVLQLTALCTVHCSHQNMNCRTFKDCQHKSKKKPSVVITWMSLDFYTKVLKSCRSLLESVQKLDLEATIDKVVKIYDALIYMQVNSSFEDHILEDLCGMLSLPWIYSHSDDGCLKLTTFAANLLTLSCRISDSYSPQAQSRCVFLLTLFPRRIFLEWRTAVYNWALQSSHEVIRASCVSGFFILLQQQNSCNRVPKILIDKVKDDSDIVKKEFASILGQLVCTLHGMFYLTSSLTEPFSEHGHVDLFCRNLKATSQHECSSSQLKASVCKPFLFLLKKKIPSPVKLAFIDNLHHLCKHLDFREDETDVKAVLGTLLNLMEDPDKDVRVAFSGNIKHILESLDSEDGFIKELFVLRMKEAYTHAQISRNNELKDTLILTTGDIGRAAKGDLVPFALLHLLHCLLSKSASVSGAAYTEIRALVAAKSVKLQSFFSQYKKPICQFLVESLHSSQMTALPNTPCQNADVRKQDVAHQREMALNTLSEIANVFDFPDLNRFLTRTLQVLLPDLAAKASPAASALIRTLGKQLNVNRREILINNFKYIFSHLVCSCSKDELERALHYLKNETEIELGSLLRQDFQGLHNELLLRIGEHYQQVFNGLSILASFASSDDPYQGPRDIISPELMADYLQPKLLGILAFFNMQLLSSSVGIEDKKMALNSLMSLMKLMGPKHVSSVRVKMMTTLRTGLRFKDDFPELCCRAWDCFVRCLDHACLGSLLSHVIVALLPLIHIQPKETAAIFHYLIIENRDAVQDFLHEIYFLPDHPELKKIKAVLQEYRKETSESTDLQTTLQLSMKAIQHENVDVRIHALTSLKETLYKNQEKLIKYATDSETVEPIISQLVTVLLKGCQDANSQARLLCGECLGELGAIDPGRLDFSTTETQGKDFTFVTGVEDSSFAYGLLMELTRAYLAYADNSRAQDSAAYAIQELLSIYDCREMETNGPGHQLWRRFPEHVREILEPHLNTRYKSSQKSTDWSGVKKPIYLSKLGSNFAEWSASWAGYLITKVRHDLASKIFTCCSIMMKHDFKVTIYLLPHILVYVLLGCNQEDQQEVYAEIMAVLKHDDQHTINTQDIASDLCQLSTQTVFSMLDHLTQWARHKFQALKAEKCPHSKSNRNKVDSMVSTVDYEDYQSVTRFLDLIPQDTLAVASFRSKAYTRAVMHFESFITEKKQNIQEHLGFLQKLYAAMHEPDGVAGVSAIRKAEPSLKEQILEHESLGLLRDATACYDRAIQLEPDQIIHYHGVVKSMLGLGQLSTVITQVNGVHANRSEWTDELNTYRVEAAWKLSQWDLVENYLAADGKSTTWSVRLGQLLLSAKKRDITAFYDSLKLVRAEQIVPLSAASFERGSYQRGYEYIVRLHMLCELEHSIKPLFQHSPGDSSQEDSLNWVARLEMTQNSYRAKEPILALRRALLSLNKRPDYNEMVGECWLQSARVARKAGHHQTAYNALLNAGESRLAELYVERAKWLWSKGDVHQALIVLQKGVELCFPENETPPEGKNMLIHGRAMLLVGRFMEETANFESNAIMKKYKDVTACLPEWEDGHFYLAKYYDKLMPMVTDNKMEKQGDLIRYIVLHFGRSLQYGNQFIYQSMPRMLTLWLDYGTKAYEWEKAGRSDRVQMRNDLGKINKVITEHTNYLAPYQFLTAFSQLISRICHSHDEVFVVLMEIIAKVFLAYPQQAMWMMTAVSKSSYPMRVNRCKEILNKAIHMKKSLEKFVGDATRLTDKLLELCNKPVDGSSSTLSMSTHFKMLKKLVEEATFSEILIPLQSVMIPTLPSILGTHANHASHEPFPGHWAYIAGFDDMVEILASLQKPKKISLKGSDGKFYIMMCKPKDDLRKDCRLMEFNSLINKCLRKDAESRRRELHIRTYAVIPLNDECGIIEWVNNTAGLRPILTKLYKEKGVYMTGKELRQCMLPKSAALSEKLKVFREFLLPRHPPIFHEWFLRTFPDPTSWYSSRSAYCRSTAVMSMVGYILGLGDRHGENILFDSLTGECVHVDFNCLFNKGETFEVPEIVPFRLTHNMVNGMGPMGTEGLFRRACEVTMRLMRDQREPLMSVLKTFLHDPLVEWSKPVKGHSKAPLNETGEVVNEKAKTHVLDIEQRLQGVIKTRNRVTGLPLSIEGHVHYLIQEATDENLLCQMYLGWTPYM

[9] = biological target: T9, HeLa cell extract proteins (Homo sapiens, UniProt Q9BW92)
T9 construct: endogenous in cells; host or cells: HeLa cell extract
T9 sequence (Q9BW92 1-718): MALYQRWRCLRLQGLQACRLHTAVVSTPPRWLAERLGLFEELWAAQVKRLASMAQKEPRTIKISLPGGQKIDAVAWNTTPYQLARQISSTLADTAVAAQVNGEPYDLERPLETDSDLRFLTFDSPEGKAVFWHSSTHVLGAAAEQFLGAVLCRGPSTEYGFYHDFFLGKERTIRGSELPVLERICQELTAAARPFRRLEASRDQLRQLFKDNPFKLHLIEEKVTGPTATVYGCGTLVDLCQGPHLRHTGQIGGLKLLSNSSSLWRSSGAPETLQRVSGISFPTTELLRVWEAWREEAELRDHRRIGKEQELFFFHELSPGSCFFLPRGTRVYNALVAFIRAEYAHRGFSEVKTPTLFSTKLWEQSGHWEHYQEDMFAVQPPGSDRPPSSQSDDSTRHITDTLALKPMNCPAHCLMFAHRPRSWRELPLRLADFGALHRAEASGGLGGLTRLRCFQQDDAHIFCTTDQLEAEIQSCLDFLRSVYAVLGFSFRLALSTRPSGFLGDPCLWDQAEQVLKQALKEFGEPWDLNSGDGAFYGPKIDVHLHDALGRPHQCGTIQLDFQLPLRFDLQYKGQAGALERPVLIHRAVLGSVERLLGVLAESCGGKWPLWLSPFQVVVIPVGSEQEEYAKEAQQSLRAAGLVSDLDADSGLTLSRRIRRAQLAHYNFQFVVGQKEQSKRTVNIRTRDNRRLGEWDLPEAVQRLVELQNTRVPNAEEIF

[10] = biological target: T10, HeLa cell extract proteins (Homo sapiens, UniProt Q9Y6G9)
T10 construct: endogenous in cells; host or cells: HeLa cell extract
T10 sequence (Q9Y6G9 whole entry): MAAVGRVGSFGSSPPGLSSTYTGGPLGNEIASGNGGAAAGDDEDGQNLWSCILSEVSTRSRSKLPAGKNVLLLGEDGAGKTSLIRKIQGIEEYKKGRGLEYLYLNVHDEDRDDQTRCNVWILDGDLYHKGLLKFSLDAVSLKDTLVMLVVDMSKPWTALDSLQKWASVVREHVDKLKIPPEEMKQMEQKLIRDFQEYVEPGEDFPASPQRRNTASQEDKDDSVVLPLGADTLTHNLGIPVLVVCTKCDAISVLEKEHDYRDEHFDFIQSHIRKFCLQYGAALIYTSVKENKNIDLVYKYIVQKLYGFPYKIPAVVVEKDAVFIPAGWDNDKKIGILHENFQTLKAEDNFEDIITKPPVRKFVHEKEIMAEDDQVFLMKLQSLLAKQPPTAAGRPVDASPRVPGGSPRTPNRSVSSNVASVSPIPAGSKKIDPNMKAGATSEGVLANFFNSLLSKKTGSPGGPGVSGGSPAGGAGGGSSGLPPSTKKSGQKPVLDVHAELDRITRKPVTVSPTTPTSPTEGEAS

[11] = biological target: T11, HeLa cell extract proteins (Homo sapiens, UniProt O00165); details: captured protein HAX1; HeLa
T11 construct: endogenous in cells; host or cells: HeLa cell extract
T11 sequence (O00165 whole entry): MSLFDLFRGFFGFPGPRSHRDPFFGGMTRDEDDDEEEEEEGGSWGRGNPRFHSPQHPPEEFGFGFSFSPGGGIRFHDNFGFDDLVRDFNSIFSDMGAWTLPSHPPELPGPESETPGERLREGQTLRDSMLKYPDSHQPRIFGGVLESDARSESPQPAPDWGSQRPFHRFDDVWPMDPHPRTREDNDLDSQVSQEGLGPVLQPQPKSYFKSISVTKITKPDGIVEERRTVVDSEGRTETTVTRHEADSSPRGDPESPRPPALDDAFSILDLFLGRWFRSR

[12] = biological target: T12, HeLa cell extract proteins (Homo sapiens, UniProt P30048); details: protein PRDX3; HeLa
T12 construct: endogenous in cells; host or cells: HeLa cell extract
T12 sequence (P30048 62-256): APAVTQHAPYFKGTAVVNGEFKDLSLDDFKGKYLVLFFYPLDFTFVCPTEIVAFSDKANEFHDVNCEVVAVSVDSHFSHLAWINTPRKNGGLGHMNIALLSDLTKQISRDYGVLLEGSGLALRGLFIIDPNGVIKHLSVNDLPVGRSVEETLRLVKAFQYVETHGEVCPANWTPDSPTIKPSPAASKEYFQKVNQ

[13] = biological target: T13, HeLa cell extract proteins (Homo sapiens, UniProt Q13501); details: HeLa; protein SQSTM1
T13 construct: endogenous in cells; host or cells: HeLa cell extract
T13 sequence (Q13501 whole entry): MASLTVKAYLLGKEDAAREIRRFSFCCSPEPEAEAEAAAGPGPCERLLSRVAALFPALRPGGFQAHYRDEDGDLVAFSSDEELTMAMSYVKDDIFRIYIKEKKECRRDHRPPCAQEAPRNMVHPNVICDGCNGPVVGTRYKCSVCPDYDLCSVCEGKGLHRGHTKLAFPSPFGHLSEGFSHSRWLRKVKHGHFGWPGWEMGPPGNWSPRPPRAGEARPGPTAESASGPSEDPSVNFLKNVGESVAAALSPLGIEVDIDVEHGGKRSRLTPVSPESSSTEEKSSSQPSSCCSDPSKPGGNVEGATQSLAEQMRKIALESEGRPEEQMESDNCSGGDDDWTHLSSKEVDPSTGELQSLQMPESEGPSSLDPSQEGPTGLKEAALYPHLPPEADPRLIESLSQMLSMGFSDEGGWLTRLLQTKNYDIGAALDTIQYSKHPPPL

[14] = HeLa, protein HBA1 (HEMOGLOBIN SUBUNIT ALPHA)

T1 sequence (O00231 whole entry): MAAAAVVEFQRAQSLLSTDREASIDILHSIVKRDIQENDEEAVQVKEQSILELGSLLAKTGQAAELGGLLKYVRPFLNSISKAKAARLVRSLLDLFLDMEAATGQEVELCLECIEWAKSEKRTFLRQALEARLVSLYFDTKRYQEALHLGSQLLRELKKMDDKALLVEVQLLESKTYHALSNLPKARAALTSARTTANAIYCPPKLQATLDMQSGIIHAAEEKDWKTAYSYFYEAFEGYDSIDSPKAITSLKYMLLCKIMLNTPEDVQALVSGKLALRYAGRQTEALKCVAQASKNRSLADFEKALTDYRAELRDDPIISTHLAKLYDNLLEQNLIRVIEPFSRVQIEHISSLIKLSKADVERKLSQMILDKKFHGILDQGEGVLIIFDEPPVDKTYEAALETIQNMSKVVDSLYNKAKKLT

Row | SMILES | fold changes relative to vehicle control ([1]; protein PSMD11, HeLa) | fold changes relative to vehicle control ([2]; HeLa, protein SCO2) | fold changes relative to vehicle control ([3]; protein CRTAP, HeLa) | fold changes relative to vehicle control ([4]; protein S100A8, HeLa) | fold changes relative to vehicle control ([5]; HeLa, protein CTSA) | fold changes relative to vehicle control ([6]; HeLa, protein KDELR1) | fold changes relative to vehicle control [7, 14] | fold changes relative to vehicle control ([8]; protein ATR, HeLa) | fold changes relative to vehicle control ([9]; HeLa, protein TARS2) | fold changes relative to vehicle control ([10]; HeLa, protein DYNC1LI1) | fold changes relative to vehicle control [11] | fold changes relative to vehicle control [12] | fold changes relative to vehicle control [13] | further results
1 | Nc1nc2c(c(=O)[nH]1)N(C=O)C(CNc1ccc(C(=O)N[C@@H](CCC(=O)O)C(=O)O)cc1)CN2 (stereo partly shown) [LEU, leucovorin] | 1.03 | 0.95 | 0.85 | 0.28 | 1.01 | 1.06 | 1.29 | 0.66 | 0.91 | 0.9 | – | – | – | –
2 | Nc1nc2[nH]cc(CCc3ccc(C(=O)N[C@@H](CCC(=O)O)C(=O)O)cc3)c2c(=O)[nH]1 [PTX, pemetrexed] | – | – | – | – | – | – | – | – | – | – | – | – | – | fold changes relative to vehicle control [1]: 1.02; fold changes relative to vehicle control [2]: 0.95; fold changes relative to vehicle control [3]: 0.82; fold changes relative to vehicle control [4]: 0.34; fold changes relative to vehicle control [5]: 0.77; fold changes relative to vehicle control [6]: 1.16; fold changes relative to vehicle control [7]: 0.97; fold changes relative to vehicle control [8]: 0.79; fold changes relative to vehicle control [9]: 0.87; fold changes relative to vehicle control [10]: 0.81
3 | CCCCCCOc1ccc(Cc2cnc(N)nc2N)cc1 [compound 1] | – | – | – | – | – | – | – | – | – | – | 0.92 | 1.11 | 1.3 | –
4 | CCCCCCOc1cccc(Cc2cnc(N)nc2N)c1 [compound 2] | – | – | – | – | – | – | – | – | – | – | 1.1 | 1.52 | 0.96 | –
5 | Nc1nc2cccc(-c3ccccc3)c2n1Cc1ccc(Cl)c(Cl)c1 [compound 3] | – | – | – | – | – | – | – | – | – | – | 1.13 | 0.99 | 1.2 | –
6 | NCCOCCOCC(=O)Nc1nc2ncc(CNc3ccc(C(=O)NC(CCC(=O)O)C(=O)O)cc3)nc2c(=O)[nH]1 (stereo not shown) [compound 6] | 1.11 | 1.02 | 0.86 | 0.4 | 0.87 | 2.19 | 1.05 | 0.69 | 1.13 | 0.9 | – | – | – | –
7 | NCCCNc1ccc(C(=O)NC(CCC(=O)O)C(=O)O)cc1 (stereo not shown) [compound 7] | 0.9 | 1.03 | 0.91 | 0.26 | 1.13 | 1.25 | 0.76 | 0.54 | 1 | 0.88 | – | – | – | –
